The assay deals with T1, alpha2A receptor (Homo sapiens, UniProt P08913).
T1 sequence (P08913 1-465): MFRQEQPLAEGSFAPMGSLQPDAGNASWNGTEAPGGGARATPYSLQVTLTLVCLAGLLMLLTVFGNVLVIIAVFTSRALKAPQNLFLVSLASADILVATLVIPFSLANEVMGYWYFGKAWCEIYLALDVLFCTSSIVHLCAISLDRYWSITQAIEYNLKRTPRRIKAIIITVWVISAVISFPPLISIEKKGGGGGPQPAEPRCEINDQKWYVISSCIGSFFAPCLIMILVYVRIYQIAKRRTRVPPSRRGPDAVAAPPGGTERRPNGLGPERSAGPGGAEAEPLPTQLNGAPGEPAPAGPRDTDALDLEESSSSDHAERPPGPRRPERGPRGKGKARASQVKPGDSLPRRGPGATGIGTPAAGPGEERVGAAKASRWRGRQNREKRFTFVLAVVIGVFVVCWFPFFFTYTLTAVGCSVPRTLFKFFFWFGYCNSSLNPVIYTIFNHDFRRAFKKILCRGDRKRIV
Put plainly: Alpha2A agonistic activity in vitro. The class given is cell-based.

The mark [1] stands for this setting: Alpha2A Agonism pEC50, in vitro.
Setting [2] is: in vitro, read-out: Alpha2A Agonism pEC50 (converted).

Where two headings read alike, the source gives them in different places.

`CCC1Cc2c(Br)cccc2C(C2=NCCN2)O1` (stereo not drawn) [Example 43, 2-(5-Bromo-3-ethylisochroman-1-yl)-4,5-dihydro-1H-imidazole] gave an EC50 under setting [1] of 50.1 nM. Further, for the setting “in vitro”, the “Alpha2A Intrinsic Activity” value worked out at 0.58. `COc1cc(C)c2c(c1)C(C1=NCCN1)OCC2` (stereo not drawn) [Example 61, 2-(7-Methoxy-5-methylisochroman-1-yl)-4,5-dihydro-1H-imidazole]: the “Alpha2A Intrinsic Activity” value (in vitro) is reported as 0.81. As for `Brc1cccc2c1CCOC2C1=NCCN1` (stereo not drawn) [Example 2, 2-(5-Bromoisochroman-1-yl)-4,5-dihydro-1H-imidazole], under setting [1], the EC50 is 15.8 nM. Where the note is “in vitro”, the “Alpha2A Intrinsic Activity” value is given as 0.85. Consider `CC1Cc2c(Br)cccc2C(C2=NCCN2)S1` (stereo not drawn) [Example 63, 2-(5-Bromo-3-methylisothiochroman-1-yl)-4,5-dihydro-1H-imidazole], for which, under “in vitro”, the “Alpha2A Intrinsic Activity” value is 0.85. Further, the EC50 under setting [2] was 3160 nM. `COc1cccc2c1C[C@@H](C)OC2C1=NCCN1` (stereo partly drawn) [Example 44, 2-((3R)-5-methoxy-3-methylisochroman-1-yl)-4,5-dihydro-1H-imidazole] gave an EC50 under setting [1] of 7.94 nM. In addition, the “Alpha2A Intrinsic Activity” value (in vitro) is reported as 0.83.

With `FC(F)(F)Oc1cccc2c1CCOC2C1=NCCN1` (stereo not drawn) [Example 79, 2-(5-(Trifluoromethoxy)isochroman-1-yl)-4,5-dihydro-1H-imidazole], the “Alpha2A Intrinsic Activity” value (in vitro) was found to be 0.30. The EC50 under setting [2] was 398 nM.

Consider `CCC1Cc2c(O)cccc2C(C2=NCCN2)O1` (stereo not drawn) [Example 76, 1-(4,5-Dihydro-1H-imidazol-2-yl)-3-ethylisochroman-5-ol], for which the “Alpha2A Intrinsic Activity” value (in vitro) amounted to 0.15. Besides, the EC50 under setting [2] was 631 nM. Under setting [1], `CC1Cc2c(Br)cccc2C(C2=NCCN2)O1` (stereo not drawn) [Example 29, 2-(5-Bromo-3-methylisochroman-1-yl)-4,5-dihydro-1H-imidazole] showed an EC50 of 2 nM. The “Alpha2A Intrinsic Activity” value (in vitro) is on record as 0.99.

As to `FC(F)(F)Cc1cccc2c1CCOC2C1=NCCN1` (stereo not drawn) [Example 72, 2-(5-(2,2,2-Trifluoroethyl)isochroman-1-yl)-4,5-dihydro-1H-imidazole], the “Alpha2A Intrinsic Activity” value (in vitro) was 0.09. The EC50 under setting [2] is 1580 nM.

Take `CCCC1Cc2c(Br)cccc2C(C2=NCCN2)O1` (stereo not drawn) [Example 40, 2-(5-Bromo-3-propylisochroman-1-yl)-4,5-dihydro-1H-imidazole]: where the note is “in vitro”, the “Alpha2A Intrinsic Activity” value came out at 0.31. In addition, the EC50 under setting [2] was 316 nM.

As to `Cc1cccc2c1C[C@@H](C)OC2C1=NCCN1` (stereo partly drawn) [Example 36, 2-((3R)-3,5-dimethylisochroman-1-yl)-4,5-dihydro-1H-imidazole], the EC50 under setting [1] is 1.58 nM. Further, the “Alpha2A Intrinsic Activity” value (in vitro) was determined as 0.90. `CCc1cccc2c1CCOC2C1=NCCN1` (single isomer, unassigned) [Example 80]: the “Alpha2A Intrinsic Activity” value (in vitro) was determined as 0.58. Under setting [2], the EC50 was 251 nM. Take `CCc1cccc2c1C[C@@H](C)OC2(C)C1=NCCN1` (stereo partly drawn) [Example 73, 2-((3R)-5-ethyl-1,3-dimethylisochroman-1-yl)-4,5-dihydro-1H-imidazole]: the “Alpha2A Intrinsic Activity” value (in vitro) was found to be 0.19. In addition, the EC50 under setting [2] is 1580 nM. The corresponding values for `Cc1cccc2c1CC(C)OC2(C)C1=NCCN1` (stereo not drawn) [Example 30, 2-(1,3,5-Trimethylisochroman-1-yl)-4,5-dihydro-1H-imidazole] are 0.60 and 794 nM. Under setting [1], `COc1cccc2c1CC(C)OC2C1=NCCN1` (stereo not drawn) [Example 38, 2-(5-Methoxy-3-methylisochroman-1-yl)-4,5-dihydro-1H-imidazole] showed an EC50 of 12.6 nM. For the same compound, the “Alpha2A Intrinsic Activity” value (in vitro) was found to be 0.92. `NC(=O)c1cccc2c1CCOC2C1=NCCN1` (stereo not drawn) [Example 56, 1-(4,5-Dihydro-1H-imidazol-2-yl)isochroman-5-carboxamide]: the “Alpha2A Intrinsic Activity” value (in vitro) amounted to 0.11. For the same compound, under setting [2], the EC50 was 3160 nM. With `Fc1cccc2c1CCOC2C1=NCCN1` (stereo not drawn) [Example 42, 2-(5-Fluoroisochroman-1-yl)-4,5-dihydro-1H-imidazole], the EC50 under setting [1] is 39.8 nM. In addition, the “Alpha2A Intrinsic Activity” value (in vitro) came out at 0.62.

The values above are taken from patent US9249127B2 (Orion Corporation, priority 2012, dated 2016).
